Legend:
[1] = target: T1, Melanin-concentrating hormone receptor 1 (Homo sapiens, UniProt Q99705); test: Antagonist activity at human MCHR1 expressed in HEK293 cells assessed as inhibition of MCH-induced Ca2+ influx for 120 mins by FLIPR assay; format: functional, cell-based
[2] = target: T1, Melanin-concentrating hormone receptor 1; test: Displacement of [125I][Phe13,Tyr19]-MCH from human MCHR1 expressed in HEK293 cells by scintillation counting analysis; format: cell-based
[3] = target: Melanin-concentrating hormone receptor 1 (Rattus norvegicus, UniProt P97639); test: Displacement of [125I][Phe13,Tyr19]-MCH from rat MCHR1 by scintillation counting analysis
Melanin-concentrating hormone receptor 1 (Rattus norvegicus, UniProt P97639), sequence (P97639 whole entry): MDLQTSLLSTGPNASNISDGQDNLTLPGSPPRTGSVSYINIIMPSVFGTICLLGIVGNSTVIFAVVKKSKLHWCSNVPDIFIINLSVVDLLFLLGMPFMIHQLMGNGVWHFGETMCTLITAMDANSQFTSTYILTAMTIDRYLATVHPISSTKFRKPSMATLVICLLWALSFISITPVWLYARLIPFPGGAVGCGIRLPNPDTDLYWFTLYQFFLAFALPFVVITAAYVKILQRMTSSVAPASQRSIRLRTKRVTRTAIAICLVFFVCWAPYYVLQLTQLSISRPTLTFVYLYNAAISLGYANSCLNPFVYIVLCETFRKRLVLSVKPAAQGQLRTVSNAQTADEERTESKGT

[4] = target: Voltage-gated inwardly rectifying potassium channel KCNH2 (Homo sapiens, UniProt Q12809); test: Inhibition of human ERG by flux assay
Voltage-gated inwardly rectifying potassium channel KCNH2, sequence (Q12809 whole entry): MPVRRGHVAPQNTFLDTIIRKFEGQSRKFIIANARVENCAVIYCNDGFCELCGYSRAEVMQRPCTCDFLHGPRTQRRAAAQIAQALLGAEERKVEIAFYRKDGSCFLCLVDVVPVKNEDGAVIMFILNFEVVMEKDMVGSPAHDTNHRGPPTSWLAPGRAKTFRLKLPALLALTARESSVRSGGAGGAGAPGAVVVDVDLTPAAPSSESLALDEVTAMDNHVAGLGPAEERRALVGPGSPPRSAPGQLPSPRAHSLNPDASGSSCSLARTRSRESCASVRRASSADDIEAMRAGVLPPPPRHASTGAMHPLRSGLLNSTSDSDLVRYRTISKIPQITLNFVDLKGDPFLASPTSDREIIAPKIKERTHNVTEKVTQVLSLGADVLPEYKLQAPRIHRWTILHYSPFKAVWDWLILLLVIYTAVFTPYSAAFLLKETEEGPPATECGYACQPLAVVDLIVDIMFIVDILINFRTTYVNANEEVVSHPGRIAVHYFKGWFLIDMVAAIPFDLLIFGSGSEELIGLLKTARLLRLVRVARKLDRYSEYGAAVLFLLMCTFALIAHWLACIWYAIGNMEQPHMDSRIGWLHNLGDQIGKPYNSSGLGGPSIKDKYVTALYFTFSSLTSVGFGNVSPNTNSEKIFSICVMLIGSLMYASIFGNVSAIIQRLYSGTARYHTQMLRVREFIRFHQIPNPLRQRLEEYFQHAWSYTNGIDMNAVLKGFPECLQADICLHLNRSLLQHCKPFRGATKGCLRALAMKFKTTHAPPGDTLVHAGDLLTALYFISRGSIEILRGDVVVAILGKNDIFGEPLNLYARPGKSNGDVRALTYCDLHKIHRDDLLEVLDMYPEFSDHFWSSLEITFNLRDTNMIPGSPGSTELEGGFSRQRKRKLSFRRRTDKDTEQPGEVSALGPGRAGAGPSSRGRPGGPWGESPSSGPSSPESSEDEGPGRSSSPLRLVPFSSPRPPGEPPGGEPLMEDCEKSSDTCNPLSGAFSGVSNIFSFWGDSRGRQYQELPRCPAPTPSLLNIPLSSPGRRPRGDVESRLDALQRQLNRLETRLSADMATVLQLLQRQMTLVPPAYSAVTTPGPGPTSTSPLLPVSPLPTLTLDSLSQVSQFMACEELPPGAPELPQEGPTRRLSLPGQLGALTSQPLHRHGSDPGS

[5] = system: Rattus norvegicus; test: Drug level in oral-dosed Sprague-Dawley rat treated with 1-(4-(6-(4-chlorophenyl)-4-oxothieno[3,2-d]pyrimidin-3(4H)-yl)-2-methoxyphenoxy)-2-methylpropan-2-yl 2-aminoacetate; format: ADME, organism-based; details: in vivo
[6] = system: Liver; test: Drug level in oral-dosed Sprague-Dawley rat liver treated with (2S)-1-(4-(6-(4-chlorophenyl)-4-oxopyrrolo[1,2-f][1,2,4]triazin-3(4H)-yl)-2-methoxyphenoxy)propan-2-yl 2-amino-3-methylbutanoate; format: ADME, tissue-based; details: in vivo
[7] = system: Nucleic Acid; test: Ratio of drug level in Sprague-Dawley rat brain to plasma assessed as (R)-6-(5-chloropyridin-2-yl)-3-(4-(2-cyclopropyl-2-hydroxyethoxy)-3-methoxyphenyl)pyrrolo[1,2-f][1,2,4]triazin-4(3H)-one level at 10 mg/kg, po qd; format: ADME, organism-based
[8] = system: Brain; test: Drug concentration in Sprague-Dawley rat brain assessed as (R)-6-(5-chloropyridin-2-yl)-3-(4-(2-cyclopropyl-2-hydroxyethoxy)-3-methoxyphenyl)pyrrolo[1,2-f][1,2,4]triazin-4(3H)-one level at 10 mg/kg, po qd at 8 hrs; format: ADME, organism-based; details: in vivo, read-out: Drug uptake
[9] = system: Plasma; test: Plasma concentration in Sprague-Dawley rat assessed as (R)-6-(5-chloropyridin-2-yl)-3-(4-(2-cyclopropyl-2-hydroxyethoxy)-3-methoxyphenyl)pyrrolo[1,2-f][1,2,4]triazin-4(3H)-one level at 10 mg/kg, po qd at 8 hrs; format: ADME, organism-based; details: in vivo

T1 sequence (Q99705 whole entry): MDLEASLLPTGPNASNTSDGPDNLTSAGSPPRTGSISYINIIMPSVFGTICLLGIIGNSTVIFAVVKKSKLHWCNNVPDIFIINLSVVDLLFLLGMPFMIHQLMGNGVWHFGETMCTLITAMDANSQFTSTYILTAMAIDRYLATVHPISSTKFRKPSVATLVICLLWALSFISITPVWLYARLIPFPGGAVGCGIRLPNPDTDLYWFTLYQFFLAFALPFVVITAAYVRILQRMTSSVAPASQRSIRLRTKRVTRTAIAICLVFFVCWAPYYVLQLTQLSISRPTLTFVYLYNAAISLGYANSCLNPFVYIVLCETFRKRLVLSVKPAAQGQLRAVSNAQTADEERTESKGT

SMILES | Ki [2] [nM] | Ki [3] [nM] | also measured
COc1cc(-n2cnn3cc(-c4ccc(Cl)cc4)cc3c2=O)ccc1N1CC[C@@H](O)C1 | 4.8 | 4.7 | –
COc1cc(-n2cnn3cc(-c4ccc(Cl)cn4)cc3c2=O)ccc1OC[C@H](O)C1CC1 | 6.5 | 12 | –
CCS(=O)(=O)C[C@@H](O)COc1ccc(-n2cnn3cc(-c4ncc(Cl)cn4)cc3c2=O)cc1OC | 28 | 23 | –
COc1cc(-n2cnn3cc(-c4ncc(Cl)cn4)cc3c2=O)ccc1OCC1(O)CC(F)(F)C1 | 9 | 7.9 | –
COc1ccc(-n2cnn3cc(-c4ccc(Cl)cc4)nc3c2=O)cc1OC | 76 | 87 | –
COc1cc(-n2cnn3cc(-c4ccc(Cl)cc4)cc3c2=O)ccc1OCC(O)C1CC1 (configuration not stated) | 3.5 | – | IC50 [1]: 300 nM
COc1cc(-n2cnc3cc(-c4ccc(Cl)cc4)sc3c2=O)ccc1OCC(C)(O)C(=O)O (configuration not stated) | – | – | Drug metabolism [5]: metabolite_detected
COc1cc(-n2cnn3cc(-c4ccc(Cl)cn4)cc3c2=O)ccc1OCC(O)C1CC1 (configuration not stated) | 13 | 12 | –
COc1cc(-n2cnn3cc(-c4ccc(Cl)cc4)cc3c2=O)ccc1OCC(O)CO (configuration not stated) | – | – | Drug metabolism [6]: metabolite_detected
COc1cc(-n2cnn3cc(-c4ccc(Cl)cn4)cc3c2=O)ccc1OC[C@H](OC(=O)CN)C1CC1 | – | – | BPR [7]: 0.2; concentration [8]: 1.15 µM; concentration [9]: 7.45 µM
COc1cc(-n2cnn3cc(-c4ncc(Cl)cn4)cc3c2=O)ccc1OCC(O)C1CC1 (configuration not stated) | 17 | 15 | –
COc1cc(-n2cnn3cc(-c4ccc(Cl)cc4)cc3c2=O)ccc1OCC(O)C(=O)O (configuration not stated) | – | – | Drug metabolism [6]: metabolite_detected
COc1cc(-n2cnn3cc(-c4ccc(Cl)cc4)nc3c2=O)ccc1OCC(O)C1CC1 (configuration not stated) | 26 | 18 | –

Further compounds by falling Ki [2], results first:

Ki [2] [nM] | Ki [3] [nM] | SMILES | also measured
3.4 | 3.8 | COc1cc(-n2cnn3cc(-c4ccc(Cl)cc4)cc3c2=O)ccc1OCC1(O)CC(F)(F)C1 | –
3.1 | 2.3 | COc1cc(-n2cnn3cc(-c4ccc(Cl)cc4)cc3c2=O)ccc1N1C[C@@H](O)[C@@H](O)C1 | IC50 [1]: 5000 nM
2.4 | 1.5 | CCS(=O)(=O)C[C@@H](O)COc1ccc(-n2cnn3cc(-c4ccc(Cl)cc4)cc3c2=O)cc1OC | –
2.3 | 1.8 | COc1cc(-n2cnn3cc(-c4ccc(Cl)cc4)cc3c2=O)ccc1OCC(C)(C)O | IC50 [1]: 44 nM
0.8 | 1.4 | O=c1c2cc(-c3ccc(Cl)cc3)cn2ncn1-c1ccc(N2CCC(N3CC(O)C3)C2)nc1 (configuration not stated) | IC50 [4]: 2000 nM
0.5 | 0.4 | COc1cc(-n2cnn3cc(-c4ccc(Cl)cc4)cc3c2=O)ccc1OCCN1CCCC1 | IC50 [4]: 5500 nM
0.4 | 0.3 | CNC1CCN(c2ccc(-n3cnn4cc(-c5ccc(Cl)cc5)cc4c3=O)cn2)C1 (configuration not stated) | –

Source: ChEMBL document CHEMBL3616440, “Non-basic azolotriazinone MCHR1 antagonists for the treatment of obesity: An empirical brain-exposures-driven candidate selection for in vivo efficacy studies” (Bioorg Med Chem Lett, 2015)
